Tests used:
Hepatitis B virus = test: Antiviral activity against Hepatitis B virus infected in human HepG2.2.15 cells assessed as inhibition of viral DNA synthesis incubated for 2 days followed by replacement of fresh medium containing compound and measured at day 10 by RT-PCR analysis; format: functional, organism-based
HepG2 2.2.15 = test: Cytotoxicity against human HepG2.2.15 cells assessed as reduction in cell viability incubated for 12 hrs followed by replacement of fresh medium containing compound and measured after 2 days by CCK-8 assay; format: functional
[1] = Selectivity index, ratio of CC50 for cytotoxicity against human HepG2.2.15 cells to EC50 for HBV infected in human HepG2.2.15 cells; format: toxicity, cell-based; settings: read-out: Ratio CC50/EC50

| SMILES | EC50 (Hepatitis B virus) | CC50 (HepG2 2.2.15) | selectivity ratio [1] |
| --- | --- | --- | --- |
| CC(C)[C@@H](N)C(=O)OCCCOP(=O)(COCCn1cnc2c(N)ncnc21)OCCCOC(=O)CC[C@@H](C)[C@H]1CC[C@H]2[C@@H]3[C@@H](O)C[C@@H]4C[C@H](O)CC[C@]4(C)[C@H]3CC[C@]12C (stereo partly specified) | 3.34 µM | 407 µM | 122 |
| CC(C)[C@H](N)C(=O)SCCCOP(=O)(COCCn1cnc2c(N)ncnc21)OCCCOC(=O)CC[C@@H](C)[C@H]1CC[C@H]2[C@@H]3CC[C@@H]4C[C@H](O)CC[C@]4(C)[C@H]3C[C@H](O)[C@]12C (stereo partly specified) | 16.4 µM | 1020 µM | 62.5 |
| C[C@H](CCC(=O)OCCCOP(=O)(COCCn1cnc2c(N)ncnc21)OCCCSC(=O)[C@@H](N)Cc1ccccc1)[C@H]1CC[C@H]2[C@@H]3CC[C@@H]4C[C@H](O)CC[C@]4(C)[C@H]3C[C@H](O)[C@]12C (stereo partly specified) | 18.8 µM | 789 µM | 41.9 |
| C[C@H](CCC(=O)OCCCOP(=O)(COCCn1cnc2c(N)ncnc21)OCCCSC(=O)[C@@H](N)Cc1ccccc1)[C@H]1CC[C@H]2[C@@H]3[C@@H](O)C[C@@H]4C[C@H](O)CC[C@]4(C)[C@H]3CC[C@]12C (stereo partly specified) | 29.4 µM | 3040 µM | 103 |
| C[C@H](CCC(=O)OCCCOP(=O)(COCCn1cnc2c(N)ncnc21)OCCCOC(=O)[C@@H](C)N)[C@H]1CC[C@H]2[C@@H]3[C@@H](O)C[C@@H]4C[C@H](O)CC[C@]4(C)[C@H]3CC[C@]12C (stereo partly specified) | 5.44 µM | 489 µM | 90 |
| C[C@H](CCC(=O)OCCCOP(=O)(COCCn1cnc2c(N)ncnc21)OCCCOC(=O)[C@@H](C)N)[C@H]1CC[C@H]2[C@@H]3CC[C@@H]4C[C@H](O)CC[C@]4(C)[C@H]3C[C@H](O)[C@]12C (stereo partly specified) | 21.5 µM | 1050 µM | 48.8 |
| CC[C@H](C)[C@@H](N)C(=O)OCCCOP(=O)(COCCn1cnc2c(N)ncnc21)OCCCOC(=O)CC[C@@H](C)[C@H]1CC[C@H]2[C@@H]3[C@@H](O)C[C@@H]4C[C@H](O)CC[C@]4(C)[C@H]3CC[C@]12C (stereo partly specified) | 0.65 µM | 378 µM | 528 |
| CC(C)C[C@H](N)C(=O)SCCCOP(=O)(COCCn1cnc2c(N)ncnc21)OCCCOC(=O)CC[C@@H](C)[C@H]1CC[C@H]2[C@@H]3[C@@H](O)C[C@@H]4C[C@H](O)CC[C@]4(C)[C@H]3CC[C@]12C (stereo partly specified) | 14.8 µM | 2070 µM | 140 |
| CC[C@H](C)[C@@H](N)C(=O)OCCCOP(=O)(COCCn1cnc2c(N)ncnc21)OCCCOC(=O)CC[C@@H](C)[C@H]1CC[C@H]2[C@@H]3CC[C@@H]4C[C@H](O)CC[C@]4(C)[C@H]3C[C@H](O)[C@]12C (stereo partly specified) | 44.1 µM | 1880 µM | 42.5 |
| CC(C)[C@H](N)C(=O)SCCCOP(=O)(COCCn1cnc2c(N)ncnc21)OCCCOC(=O)CC[C@@H](C)[C@H]1CC[C@H]2[C@@H]3[C@@H](O)C[C@@H]4C[C@H](O)CC[C@]4(C)[C@H]3CC[C@]12C (stereo partly specified) | 97 µM | 1840 µM | 19 |
| CC(C)C[C@@H](N)C(=O)OCCCOP(=O)(COCCn1cnc2c(N)ncnc21)OCCCOC(=O)CC[C@@H](C)[C@H]1CC[C@H]2[C@@H]3CC[C@@H]4C[C@H](O)CC[C@]4(C)[C@H]3C[C@H](O)[C@]12C (stereo partly specified) | 9.77 µM | 876 µM | 89.7 |
| CC(C)[C@@H](N)C(=O)OCCCOP(=O)(COCCn1cnc2c(N)ncnc21)OCCCOC(=O)CC[C@@H](C)[C@H]1CC[C@H]2[C@@H]3CC[C@@H]4C[C@H](O)CC[C@]4(C)[C@H]3C[C@H](O)[C@]12C (stereo partly specified) | 11.2 µM | 666 µM | 59.2 |

From ChEMBL document CHEMBL4346741, “Synthesis, pharmacological evaluation, and mechanistic study of adefovir mixed phosphonate derivatives bearing cholic acid and l-amino acid moieties for the treatment of HBV” (Bioorg Med Chem, 2019)
